In US6602888B2, “Use of α1C specific compounds to treat benign prostatic hyperplasia” (Synaptic Pharmaceutical Corporation, priority 1992, dated 2003):
Where two headings read alike, the source gives them in different places.

How the values were obtained:
human 5HT1E receptor = target: T1, human 5HT1E receptor (Homo sapiens, UniProt P28566); assay: [3H]serotonin competition binding, 5HT1E receptor
T1 construct: host or cells: LM(tk-) clonal cell line 5HT1E-7
Experimental: (§1) 5HT1Dα, 5HT1Dβ, 5HT1E, 5HT1F Receptors: The cell lysates of LM(tk−) clonal cell line stably transfected with the genes encoding each of these 5HT receptor-subtypes were prepared as described above. The cell line for the 5HT1Dα receptor, designated as Ltk-8-30-84, was deposited on Apr. […] The cell for the 5HT1Dβ receptor, designated as Ltk-11, was deposited on Apr. […] The cell line for the 5HT1E receptor, designated 5 HT1E-7, was deposited on Nov. […] The cell line for the 5HT1F receptor, designated L-5-HT1F, was deposited on Dec. […] These preparations were suspended in 50 mM Tris-HCl buffer (pH 7.4 at 37° C.) containing 10 mM MgCl2, 0.2 mM EDTA, 10 μM pargyline, and 0.1% ascorbate.

human 5HT1Dβ receptor = target: T2, human 5HT1Dβ receptor (Homo sapiens, UniProt P28222); assay: [3H]serotonin competition binding, 5HT1Dβ receptor
T2 construct: host or cells: LM(tk-) clonal cell line Ltk-11
T2 sequence (P28222 whole entry): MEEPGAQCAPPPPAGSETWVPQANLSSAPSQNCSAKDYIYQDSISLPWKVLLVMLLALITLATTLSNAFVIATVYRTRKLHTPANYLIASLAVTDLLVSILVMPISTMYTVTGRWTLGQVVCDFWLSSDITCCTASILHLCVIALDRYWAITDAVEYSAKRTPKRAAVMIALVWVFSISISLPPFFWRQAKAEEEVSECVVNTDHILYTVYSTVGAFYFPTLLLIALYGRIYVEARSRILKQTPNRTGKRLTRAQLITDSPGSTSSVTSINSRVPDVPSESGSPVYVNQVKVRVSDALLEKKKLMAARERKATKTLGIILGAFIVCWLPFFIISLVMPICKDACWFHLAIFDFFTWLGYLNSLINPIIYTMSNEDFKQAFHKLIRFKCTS
Experimental: as §1

human 5HT1Dα receptor = target: T3, human 5HT1Dα receptor (Homo sapiens, UniProt P28221); assay: [3H]serotonin competition binding, 5HT1Dα receptor
T3 construct: host or cells: LM(tk-) clonal cell line Ltk-8-30-84
T3 sequence (P28221 whole entry): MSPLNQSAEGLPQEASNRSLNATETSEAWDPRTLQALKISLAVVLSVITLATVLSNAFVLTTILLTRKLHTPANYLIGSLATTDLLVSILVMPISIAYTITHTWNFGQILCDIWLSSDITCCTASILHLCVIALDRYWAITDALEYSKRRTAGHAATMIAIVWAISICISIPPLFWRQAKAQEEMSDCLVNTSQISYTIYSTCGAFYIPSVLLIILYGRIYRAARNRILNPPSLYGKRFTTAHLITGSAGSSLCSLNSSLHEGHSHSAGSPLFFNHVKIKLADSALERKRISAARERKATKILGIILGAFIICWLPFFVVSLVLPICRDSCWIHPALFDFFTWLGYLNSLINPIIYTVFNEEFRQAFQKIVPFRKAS
Experimental: as §1

human D2 receptor = target: T4, human D2 receptor (Homo sapiens, UniProt P14416); assay: [3H]spiperone binding, dopamine D2 receptor; conditions: for Ki: read-out: Dopamine D2 (pK1)
T4 construct: host or cells: COS-7, transient, DEAE-dextran
T4 sequence (P14416 whole entry): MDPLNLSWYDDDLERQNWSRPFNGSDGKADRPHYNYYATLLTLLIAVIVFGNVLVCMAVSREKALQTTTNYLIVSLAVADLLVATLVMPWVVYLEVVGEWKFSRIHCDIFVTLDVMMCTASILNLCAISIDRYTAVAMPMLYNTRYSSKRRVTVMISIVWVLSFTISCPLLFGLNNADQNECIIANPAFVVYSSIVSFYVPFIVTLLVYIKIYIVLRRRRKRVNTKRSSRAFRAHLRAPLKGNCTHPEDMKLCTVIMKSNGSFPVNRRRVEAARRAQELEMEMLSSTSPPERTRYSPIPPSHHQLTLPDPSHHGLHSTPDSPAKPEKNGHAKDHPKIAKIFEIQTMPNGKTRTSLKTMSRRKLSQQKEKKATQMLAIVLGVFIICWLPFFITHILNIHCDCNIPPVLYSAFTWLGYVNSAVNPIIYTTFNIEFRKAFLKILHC
Experimental: The potency of α1 antagonists at the D2 receptor was determined using membrane preparations from COS-7 cells transfected with the gene encoding the human D2 receptor. The coding region for the human D2 receptor was obtained from a human striatum cDNA library, and cloned into the cloning site of PCDNA 1 eukariotic expression vector. The plasmid DNA for the D2 receptor is designated pcEXV-D2, and was deposited on Nov. […] This construct was transfected into COS-7 cells by the DEAE-dextran method. […] The cell lysates were incubated with [3H]spiperone (2 nM), using 10 μM (+)Butaclamol to determine nonspecific binding.

[1] = target: T5, human histamine H1 receptor (Homo sapiens, UniProt P35367); assay: [3H]mepyramine binding, histamine H1 receptor; conditions: for Ki: read-out: Histamine H1 (pK1) (converted)
T5 construct: host or cells: COS-7, transient, DEAE-dextran
T5 sequence (P35367 whole entry): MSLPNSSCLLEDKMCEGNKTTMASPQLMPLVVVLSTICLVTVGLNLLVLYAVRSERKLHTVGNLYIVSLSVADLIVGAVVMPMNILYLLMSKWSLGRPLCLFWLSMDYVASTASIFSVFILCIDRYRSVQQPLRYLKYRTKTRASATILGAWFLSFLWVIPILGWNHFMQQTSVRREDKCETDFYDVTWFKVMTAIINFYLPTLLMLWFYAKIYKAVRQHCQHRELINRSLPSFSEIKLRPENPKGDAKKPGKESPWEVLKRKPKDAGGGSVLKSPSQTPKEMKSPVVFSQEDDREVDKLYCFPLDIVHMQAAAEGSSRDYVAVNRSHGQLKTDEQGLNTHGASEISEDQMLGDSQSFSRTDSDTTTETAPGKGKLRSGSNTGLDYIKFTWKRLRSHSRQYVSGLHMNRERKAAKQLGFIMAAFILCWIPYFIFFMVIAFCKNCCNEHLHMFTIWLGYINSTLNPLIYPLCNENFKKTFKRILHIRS
From the text: The coding sequence of the human histamine H1 receptor, homologous to the bovine H1 receptor, was obtained from a human hippocampal cDNA library, and was cloned into the eukaryotic expression vector pCEXV-3. The plasmid DNA for the H1 receptor is designated pcEXV-H1, and was deposited on Nov. […] This construct was transfected into COS-7 cells by the DEAE-dextran method.

[2] = target: T6, human histamine H2 receptor (Homo sapiens, UniProt P25021); assay: [3H]tiotidine binding, histamine H2 receptor; conditions: for Ki: read-out: Histamine H2 (pK1) (converted)
T6 construct: host or cells: COS-7, transient, DEAE-dextran
T6 sequence (P25021 whole entry): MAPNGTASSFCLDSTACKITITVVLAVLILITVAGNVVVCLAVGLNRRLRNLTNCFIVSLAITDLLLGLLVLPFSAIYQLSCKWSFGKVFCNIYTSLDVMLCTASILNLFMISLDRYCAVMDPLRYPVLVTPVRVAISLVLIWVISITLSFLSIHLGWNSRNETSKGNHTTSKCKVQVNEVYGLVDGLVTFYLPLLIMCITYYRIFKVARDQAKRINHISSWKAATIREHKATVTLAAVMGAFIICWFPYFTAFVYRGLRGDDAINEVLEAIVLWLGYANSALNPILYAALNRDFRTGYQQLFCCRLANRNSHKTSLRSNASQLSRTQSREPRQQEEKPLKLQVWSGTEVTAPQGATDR
From the text: The coding sequence of the human H2 receptor was obtained from a human placenta genomic library, and cloned into the cloning site of PCEXV-3 eukaryotic expression vector. The plasmid DNA for the H2 receptor is designated pcEXV-H2, and was deposited on Nov. […] This construct was transfected into COS-7 cells by the DEAE-dextran method.

[3] = target: T7, human α1A adrenergic receptor (Homo sapiens, UniProt P25100); assay: Radioligand binding, [3H]prazosin, cloned human α1A adrenergic receptor
T7 sequence (P25100 1-572): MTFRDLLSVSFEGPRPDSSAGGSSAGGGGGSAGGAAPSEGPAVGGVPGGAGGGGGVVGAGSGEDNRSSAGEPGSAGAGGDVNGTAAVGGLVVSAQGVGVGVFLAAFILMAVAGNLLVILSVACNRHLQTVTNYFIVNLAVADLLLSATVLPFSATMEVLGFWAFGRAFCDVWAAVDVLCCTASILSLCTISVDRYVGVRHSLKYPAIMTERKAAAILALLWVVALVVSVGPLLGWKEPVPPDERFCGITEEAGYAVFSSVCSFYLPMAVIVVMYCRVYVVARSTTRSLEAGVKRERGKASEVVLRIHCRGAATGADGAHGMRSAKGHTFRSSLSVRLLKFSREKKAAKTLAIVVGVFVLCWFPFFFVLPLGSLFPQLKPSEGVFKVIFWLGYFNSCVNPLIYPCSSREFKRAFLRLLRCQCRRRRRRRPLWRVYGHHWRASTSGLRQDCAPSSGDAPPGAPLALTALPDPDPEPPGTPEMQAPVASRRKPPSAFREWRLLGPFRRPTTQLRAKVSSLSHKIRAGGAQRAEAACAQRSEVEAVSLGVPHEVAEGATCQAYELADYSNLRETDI

human 5HT1F receptor = target: T8, human 5HT1F receptor (Homo sapiens, UniProt P30939); assay: [3H]serotonin competition binding, 5HT1F receptor
T8 construct: host or cells: LM(tk-) clonal cell line L-5-HT1F
T8 sequence (P30939 1-366): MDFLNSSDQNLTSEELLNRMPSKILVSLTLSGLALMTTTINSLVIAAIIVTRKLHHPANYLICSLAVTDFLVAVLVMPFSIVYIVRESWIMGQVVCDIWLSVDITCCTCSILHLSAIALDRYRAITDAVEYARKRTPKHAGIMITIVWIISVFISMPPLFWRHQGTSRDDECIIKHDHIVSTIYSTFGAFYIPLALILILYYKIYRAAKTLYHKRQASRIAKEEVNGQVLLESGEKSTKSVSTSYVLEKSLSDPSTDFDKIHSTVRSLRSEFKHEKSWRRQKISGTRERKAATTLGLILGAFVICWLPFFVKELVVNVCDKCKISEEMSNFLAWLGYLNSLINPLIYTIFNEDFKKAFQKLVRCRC
Experimental: as §1

[4] = target: T9, human α1B adrenergic receptor (Homo sapiens, UniProt P35368); assay: Radioligand binding, [3H]prazosin, cloned human α1B adrenergic receptor
T9 sequence (P35368 1-520): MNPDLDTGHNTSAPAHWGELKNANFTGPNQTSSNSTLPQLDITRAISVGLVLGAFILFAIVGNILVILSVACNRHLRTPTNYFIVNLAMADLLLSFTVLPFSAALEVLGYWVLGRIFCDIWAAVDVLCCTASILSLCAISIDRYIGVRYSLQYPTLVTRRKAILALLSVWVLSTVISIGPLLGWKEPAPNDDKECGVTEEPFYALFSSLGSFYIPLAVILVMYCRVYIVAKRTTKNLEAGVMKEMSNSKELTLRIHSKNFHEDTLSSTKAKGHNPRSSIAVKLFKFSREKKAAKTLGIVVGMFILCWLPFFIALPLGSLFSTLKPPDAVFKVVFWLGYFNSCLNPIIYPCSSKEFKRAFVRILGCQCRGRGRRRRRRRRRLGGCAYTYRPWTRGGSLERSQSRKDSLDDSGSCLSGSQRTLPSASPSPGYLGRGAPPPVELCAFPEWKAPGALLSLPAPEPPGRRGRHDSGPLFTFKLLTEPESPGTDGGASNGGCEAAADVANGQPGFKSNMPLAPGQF

[5] = Table 2, cloned human receptor, read-out: Serotonin 5HT1E (pK1)
[6] = Table 2, cloned human receptor, read-out: Serotonin 5HT1Db (pK1)
[7] = Table 2, cloned human receptor, read-out: Serotonin 5HT1Da (pK1)
[8] = Table 2, cloned human receptor, read-out: Serotonin 5HT1F (pK1)

T1 sequence (P28566 whole entry): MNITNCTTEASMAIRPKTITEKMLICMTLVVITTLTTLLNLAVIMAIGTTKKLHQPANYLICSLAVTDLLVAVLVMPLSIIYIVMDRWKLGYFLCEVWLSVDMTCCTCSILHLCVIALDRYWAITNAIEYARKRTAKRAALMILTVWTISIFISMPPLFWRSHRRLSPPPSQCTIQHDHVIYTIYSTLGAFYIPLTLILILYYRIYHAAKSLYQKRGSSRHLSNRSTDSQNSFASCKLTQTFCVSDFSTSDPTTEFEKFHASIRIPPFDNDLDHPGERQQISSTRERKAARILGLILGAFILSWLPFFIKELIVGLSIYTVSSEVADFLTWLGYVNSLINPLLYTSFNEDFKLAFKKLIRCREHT

Molecule	Ki (human D2 receptor; Table 2, cloned human receptor) [nM]	Ki ([1]; Table 2, cloned human receptor) [nM]	Ki ([2]; Table 2, cloned human receptor) [nM]	Alpha-1 Adrenergic a1A (pK1) ([3]; Table 2, cloned human receptor)	Serotonin 5HT1E (pK1) (human 5HT1E receptor; Table 2, cloned human receptor)	Serotonin 5HT1Db (pK1) (human 5HT1Dβ receptor; Table 2, cloned human receptor)	Serotonin 5HT1Da (pK1) (human 5HT1Dα receptor; Table 2, cloned human receptor)	Dopamine D2 (pK1) (human D2 receptor; Table 2, cloned human receptor)	Histamine H1 (pK1) ([1]; Table 2, cloned human receptor)	Histamine H2 (pK1) ([2]; Table 2, cloned human receptor)	Alpha-1 Adrenergic a1B (pK1) ([4]; Table 2, cloned human receptor)	Serotonin 5HT1F (pK1) (human 5HT1F receptor; Table 2, cloned human receptor)	further results
COC(=O)C1=C(C)NC(C)=C(C(=O)OCCCN2CCC(c3ccccc3)(c3ccccc3)CC2)C1c1ccc([N+](=O)[O-])cc1.Cl (centres unmarked) [Compound 8, 2,6-Dimethyl-4-(4-nitrophenyl)-1,4-dihydropyridine-3,5-dicarboxylic acid [3-(4,4-diphenylpiperidin-1-yl)propyl] ester methyl ester hydrochloride]	> 1000	214	776	6.52	–	–	–	–	–	–	–	–	Ki (human 5HT1E receptor): > 10000 nM; Ki (human 5HT1Dβ receptor): > 10000 nM; Ki (human 5HT1Dα receptor): > 1000 nM; Ki (human 5HT1F receptor): > 10000 nM
C=Cc1sc2ccc(Cl)c3c2c1CN(C)CC3 [SKF-104856, 7-Chloro-2-ethenyl-3,4,5,6-tetrahydro-4-methylthieno[4,3,2-ef][3]benzazepine, reference compound]	> 100	2570	1450	–	–	–	–	–	–	–	–	–	Ki (human 5HT1E receptor; [5]): > 1000 nM; Ki (human 5HT1Dβ receptor; [6]): > 100 nM; Ki (human 5HT1Dα receptor; [7]): > 100 nM; Ki (human 5HT1F receptor; [8]): > 100 nM
O=C(NC1CCN(CCc2c[nH]c3ccccc23)CC1)c1ccccc1 [Indoramin, reference compound]	> 10	42.7	2340	–	–	–	–	–	–	–	–	–	Ki (human 5HT1E receptor; [5]): > 10000 nM; Ki (human 5HT1Dβ receptor; [6]): > 1000 nM; Ki (human 5HT1Dα receptor; [7]): > 1000 nM; Ki (human 5HT1F receptor; [8]): > 10000 nM
O=C(CCCN1CCC(NC(=O)c2ccccc2)CC1)c1ccc(Cl)cc1 [Compound 7]	–	–	–	6.82	<5.0	<5.0	<6.0	<7.0	7.59	6.02	7.18	<5.0	Human Alpha-1 Adrenergic (pK1) a1B ([4]; Table 1, cloned human receptor): 7.18
COc1ccccc1N1CCN(CCCNc2c(C)c(=O)n(C)c(=O)n2C)CC1 [5-Methyl-Urapidil, 5-methylurapidil, reference compound]	–	–	–	7.79	–	6.82	7.30	<5.0	5.16	4.47	–	–	Alpha-1 Adrenergic a1B (pK1) [4]: 6.77; Human Alpha-1 Adrenergic (pK1) a1B [4]: 6.77
4-fluoro-4-(8-fluoro-1,3,4,5-tetrahydro-2H-pyrido[4,3-b]indol-2-yl)butyrophenone hydrochloride [Compound A-30360, reference compound]	–	–	–	–	<5.0	<6.0	<6.0	–	–	–	–	<5.0	Dopamine D2 (pK1) (human D2 receptor): <9.0; Histamine H1 (pK1) [1]: 6.03; Histamine H2 (pK1) [2]: 5.77; Alpha-1 Adrenergic a1A (pK1) [3]: 7.49; Alpha-1 Adrenergic a1B (pK1) [4]: 7.86; Human Alpha-1 Adrenergic (pK1) a1B [4]: 7.86
O=C(CCCN1CCC(NC(=O)c2ccccc2)CC1)c1ccccc1 [Compound 9]	–	–	–	6.12	<5.0	<6.0	<6.0	<7.0	7.29	5.44	6.76	<5.0	Human Alpha-1 Adrenergic (pK1) a1B ([4]; Table 1, cloned human receptor): 6.76
COc1ccc(CCNCC2CCc3ccccc3C2)cc1 (centres unmarked) [Compound 11, 2-[(4-Methoxyphenethyl)aminomethyl]-1,2,3,4-tetrahydronaphthalene]	> 1000	1820	35.5	6.81	–	–	–	–	–	–	7.14	–	Ki (human 5HT1E receptor): > 10000 nM; Ki (human 5HT1Dβ receptor): > 1000 nM; Ki (human 5HT1Dα receptor): > 1000 nM; Ki [3]: 155 nM; Ki [4]: 72.4 nM; Ki (human 5HT1F receptor): > 10000 nM
